Source: patent publication US12686666B2, “Triazine compound salt, crystal form thereof, and production method therefor” (TANABE PHARMA CORPORATION, priority 2020, dated 2026)
Marks after values point to notes of the source that are not given here.

Tests used:
Format in all cases: physicochemical
[1] = Thermal stability evaluation (TG/DTA weight change); conditions: for Thermal stability, conclusion in words: did not show a significant weight change (Succinate Form A: at 25 to 148° C., melting point)
Method: (§1) Thermal stability was measured and evaluated by using a thermogravimetry/differential thermal analyzer TG/DTA7200 (SII NanoTechnology Inc.) under the following conditions. • Rate of temperature increase: 10° C./min • Range of temperature increase: 25 to 300° C. • Atmosphere: nitrogen 200 mL/min <Hygroscopicity or Deliquescency Evaluation>
as §1, with “Inc.) under the following conditions • Rate of temperature increase: 10° C./min • Range of temperature increase: 30 to 300° C. • Atmosphere: nitrogen 200 mL/min • or • using a TGA/DSC1 thermogravimetric analyzer (manufactured by Mettler Toledo, STARe system)” for “Inc.)”, “nitrogen 50” for “nitrogen 200”

[2] = Hygroscopicity or deliquescency evaluation (moisture adsorption, DVS); conditions: for Hydration state (hydration stage in moisture adsorption): normal temperature, relative humidity of 10 to 95%; for Hygroscopicity or deliquescency, conclusion in words: from Table 5
Method: Hygroscopicity or deliquescency was evaluated as follows by using a moisture adsorption measurement device DVS-1 or DVS-intrinsic (Surface Measurement Systems Limited). Each sample (about 5 mg) was placed into an aluminum plate of which the tare weight had been corrected in advance, and the plate was hung on the precision balance of said device to precisely measure the weight at the start of measurement. The humidity was changed in a stepwise manner in a chamber at 25° C., the weight change was recorded with time, and the equilibrium weight was calculated at each humidity. On the basis of the weight at a dried condition (0% RH), the weight change rate and hydration number at each humidity were calculated.
Hygroscopicity or deliquescency was evaluated as follows by using a moisture adsorption measurement device DVS-1 or DVS-intrinsic (Surface Measurement Systems Limited). Each sample was placed into a cell of which the tare weight had been corrected in advance, and the cell was hung on the precision balance of said device to precisely measure the weight at the start of measurement. The humidity was changed in a stepwise manner, the weight change was recorded with time, and the equilibrium weight was calculated at each humidity. On the basis of the weight of anhydride converted from the amount of water at a dried condition (0% RH) or at the start of measurement observed by an alternative method, the weight change rate at each humidity was calculated.

[3] = Chemical stability evaluation (storage 1 week, liquid chromatography peak area %); conditions: for Chemical stability, conclusion in words: did not show a significant increase of related substances
Method: Each about 1 mg of a sample stored at 60° C. (sealed) or 60° C./75% RH (open) for 1 week and an unstored sample (at the start of test) was dissolved into a mixed solution of acetonitrile/water (1:1) (5 mL) to obtain each sample solution. A test was carried out by liquid chromatographic method under the following conditions to measure each peak area (%).
Each peak area (%) was measured by using Waters ACQUITY UPLC under the following conditions. • Detector: Photodiode array (measurement wavelength: 239 nm) • Column: Waters ACQUITY BEH C18 (2.1 mm×100 mm, 1.7 μm) • Column temperature: constant temperature about 40° C. • Mobile phase: Solution A; water/TFA (2000:1), Solution B; Acetonitrile/TFA (2000:1) • Concentration gradient control: B % 2→100% (15 minutes) • Flow rate: 0.5 mL/min • Injection volume: 2 μL
Each sample was stored at 60° C. under a sealed condition and at 60° C. under 75% RH for 1 week, and an increase or decrease of related substance(s) after the storage was calculated by high-performance liquid chromatographic method on the basis of the area percentage of each peak. Also, the condition of each sample after the storage was observed.

[4] = Table 5, 25° C., relative to weight at 0% RH
[5] = Table 5, change of related substances (peak area %) vs start
[6] = Table 5, stored 1 week at 60° C. sealed, change of related substances (peak area %) vs start
[7] = Table 10, *1 with hydration stage
[8] = Table 10, increase or decrease of related substance(s), HPLC area percentage

CC(=O)NC1CCC(NC(=O)CN2CCN(c3nncc(-c4ccc(C)cc4)n3)CC2)CC1.O=C(O)CC(O)C(=O)O (centres unmarked) [Malate Form A crystal]
Thermal stability TG: weight change ([1]; 25-280° C.): 21.2%
Hygroscopicity or Deliquescency Weight change at 90% RH [2, 4]: 15%

CC(=O)NC1CCC(NC(=O)CN2CCN(c3nncc(-c4ccc(C)cc4)n3)CC2)CC1.O=C(O)C=CC(=O)O (centres unmarked) [Maleate Form B crystal]
Thermal stability TG: weight change ([1]; 25-90° C.): 0.4%
Thermal stability TG: weight change ([1]; 120-260° C.): 17.6%
Thermal stability, conclusion in words [1]: excellent thermal stability
Hygroscopicity or Deliquescency Weight change at 90% RH [2, 4]: 7.5%
Chemical stability 60° C., 75% RH, 1 week (open) [3, 5]: 9.66%
Condition of the sample after storage at 60° C., 75% RH, 1 week (open) ([3]; Table 5, remark in words under the value (glycolate: free body was observed at 60° C., 75% RH, 1 week)): (deliquescent)
Chemical stability 60° C. (sealed) [3, 6]: 0.02%

CC(=O)NC1CCC(NC(=O)CN2CCN(c3nncc(-c4ccc(C)cc4)n3)CC2)CC1.Cl (centres unmarked) [Hydrochloride Form A crystal]
Thermal stability TG: weight change ([1]; 25-160° C.): 0.4%
Thermal stability, conclusion in words [1]: excellent thermal stability
Hygroscopicity or Deliquescency Weight change at 90% RH [2, 4]: 7.5%
Chemical stability 60° C., 75% RH, 1 week (open) [3, 5]: −0.01%
Chemical stability 60° C. (sealed) [3, 6]: −0.01%
Chemical stability, conclusion in words [3]: excellent chemical stability

Br.CC(=O)NC1CCC(NC(=O)CN2CCN(c3nncc(-c4ccc(C)cc4)n3)CC2)CC1 (centres unmarked) [Hydrobromide Form N crystal]
Thermal stability TG: weight change ([1]; Table 10, 25-242° C.): 6.2%
Hygroscopicity or Deliquescency Weight change at 90% RH [2, 7]: 7.2%*^1
Hydration state (hydration stage in moisture adsorption) [2]: hydrate
Chemical stability 60° C., 75% RH, 1 week (open) [3, 8]: 0.00%

CC(=O)NC1CCC(NC(=O)CN2CCN(c3nncc(-c4ccc(C)cc4)n3)CC2)CC1.Cc1ccc(S(=O)(=O)O)cc1 (centres unmarked) [Tosilate Form B crystal]
Thermal stability TG: weight change ([1]; 25° C.-melting point): 0.7%
Thermal stability, conclusion in words [1]: excellent thermal stability
Hygroscopicity or Deliquescency Weight change at 90% RH [2, 4]: 7.5%
Hygroscopicity or deliquescency, conclusion in words [2]: excellent in the reduced hygroscopicity or deliquescency
Chemical stability 60° C., 75% RH, 1 week (open) [3, 5]: −0.05%
Chemical stability 60° C. (sealed) [3, 6]: −0.07%
Chemical stability, conclusion in words [3]: excellent chemical stability

CC(=O)NC1CCC(NC(=O)CN2CCN(c3nncc(-c4ccc(C)cc4)n3)CC2)CC1.O=C(O)C=CC(=O)O (centres unmarked) [Maleate Form A crystal]
Thermal stability, conclusion in words [1]: excellent thermal stability
Thermal stability TG: weight change ([1]; no temperature range printed): 0.0%
Hygroscopicity or Deliquescency Weight change at 90% RH [2, 4]: 22%
Chemical stability 60° C., 75% RH, 1 week (open) [3, 5]: 0.12%
Chemical stability 60° C. (sealed) [3, 6]: 0.01%
Chemical stability, conclusion in words [3]: excellent chemical stability

CC(=O)NC1CCC(NC(=O)CN2CCN(c3nncc(-c4ccc(C)cc4)n3)CC2)CC1.Cl.Cl (centres unmarked) [Hydrochloride Form B crystal]
Hygroscopicity or Deliquescency Weight change at 90% RH [2, 4]: 5.5%

CC(=O)NC1CCC(NC(=O)CN2CCN(c3nncc(-c4ccc(C)cc4)n3)CC2)CC1.CC(=O)NC1CCC(NC(=O)CN2CCN(c3nncc(-c4ccc(C)cc4)n3)CC2)CC1.O=S(=O)(O)O.O=S(=O)(O)O.O=S(=O)(O)O.O=S(=O)(O)O.O=S(=O)(O)O (centres unmarked) [Sulfate Form A crystal]
Hygroscopicity or Deliquescency Weight change at 90% RH [2, 4]: 8%

Br.Br.CC(=O)NC1CCC(NC(=O)CN2CCN(c3nncc(-c4ccc(C)cc4)n3)CC2)CC1 (centres unmarked) [Hydrobromide Form F crystal]
Thermal stability TG: weight change ([1]; Table 10, room temperature −200° C.): 4.8%
Hygroscopicity or Deliquescency Weight change at 90% RH [2, 7]: 3.5%*^1
Hydration state (hydration stage in moisture adsorption) [2]: hydrate
Chemical stability 60° C. (sealed) ([3]; Table 10, 1 week, increase or decrease of related substance(s), HPLC area percentage): 0.02%
Chemical stability 60° C., 75% RH, 1 week (open) [3, 8]: 0.12%

CC(=O)NC1CCC(NC(=O)CN2CCN(c3nncc(-c4ccc(C)cc4)n3)CC2)CC1.CS(=O)(=O)O (centres unmarked) [Mesilate Form A crystal]
Thermal stability TG: weight change ([1]; 120° C.): 0.8%
Thermal stability, conclusion in words [1]: excellent thermal stability
Hygroscopicity or Deliquescency Weight change at 90% RH [2, 4]: 17%
Chemical stability 60° C., 75% RH, 1 week (open) [3, 5]: 5.73%
Chemical stability 60° C. (sealed) [3, 6]: −0.13%

CC(=O)NC1CCC(NC(=O)CN2CCN(c3nncc(-c4ccc(C)cc4)n3)CC2)CC1.O=C(O)CO (centres unmarked) [Glycolate Form A crystal]
Thermal stability TG: weight change ([1]; 70° C.-melting point): 14.4%
Hygroscopicity or Deliquescency Weight change at 90% RH [2, 4]: 1.9%
Hygroscopicity or deliquescency, conclusion in words [2]: excellent in the reduced hygroscopicity or deliquescency
Chemical stability 60° C., 75% RH, 1 week (open) [3, 5]: 0.02%
Chemical stability 60° C. (sealed) [3, 6]: 0.02%
Chemical stability, conclusion in words [3]: excellent chemical stability

CC(=O)NC1CCC(NC(=O)CN2CCN(c3nncc(-c4ccc(C)cc4)n3)CC2)CC1.O=C(O)CC(O)(CC(=O)O)C(=O)O (centres unmarked) [Citrate Form A crystal]
Thermal stability TG: weight change ([1]; 25° C.-melting point): 2.2%
Thermal stability, conclusion in words [1]: excellent thermal stability
Hygroscopicity or Deliquescency Weight change at 90% RH [2, 4]: 7.6%
Chemical stability 60° C., 75% RH, 1 week (open) [3, 5]: 0.03%
Chemical stability 60° C. (sealed) [3, 6]: −0.03%
Chemical stability, conclusion in words [3]: excellent chemical stability

CC(=O)NC1CCC(NC(=O)CN2CCN(c3nncc(-c4ccc(C)cc4)n3)CC2)CC1.O=C(O)CCC(=O)O (centres unmarked) [Succinate Form A crystal]
Thermal stability TG: weight change ([1]; 25-148° C.): 0.0%
Thermal stability TG: weight change ([1]; 148-210° C.): 23.7%
Thermal stability, conclusion in words [1]: excellent thermal stability
Hygroscopicity or Deliquescency Weight change at 90% RH [2, 4]: 0.4%
Hygroscopicity or deliquescency, conclusion in words [2]: excellent in the reduced hygroscopicity or deliquescency
Chemical stability 60° C., 75% RH, 1 week (open) [3, 5]: 0.02%
Chemical stability 60° C. (sealed) [3, 6]: 0.04%
Chemical stability, conclusion in words [3]: excellent chemical stability

CC(=O)NC1CCC(NC(=O)CN2CCN(c3nncc(-c4ccc(C)cc4)n3)CC2)CC1.Cc1ccc(S(=O)(=O)O)cc1.Cc1ccc(S(=O)(=O)O)cc1 (centres unmarked) [Tosilate Form C crystal]
Thermal stability TG: weight change ([1]; 25° C.-melting point): 1.2%
Thermal stability, conclusion in words [1]: excellent thermal stability
Hygroscopicity or Deliquescency Weight change at 90% RH [2, 4]: 1.4%
Hygroscopicity or deliquescency, conclusion in words [2]: excellent in the reduced hygroscopicity or deliquescency
Chemical stability 60° C., 75% RH, 1 week (open) [3, 5]: 0.39%
Chemical stability 60° C. (sealed) [3, 6]: 0.04%
Chemical stability, conclusion in words [3]: excellent chemical stability

CC(=O)NC1CCC(NC(=O)CN2CCN(c3nncc(-c4ccc(C)cc4)n3)CC2)CC1.CC(=O)NC1CCC(NC(=O)CN2CCN(c3nncc(-c4ccc(C)cc4)n3)CC2)CC1.O.O.O.O.O=S(=O)(O)O.O=S(=O)(O)O.O=S(=O)(O)O.O=S(=O)(O)O.O=S(=O)(O)O (centres unmarked) [Sulfate Form B crystal]
Thermal stability TG: weight change ([1]; 25-93° C.): 4.3%
Thermal stability TG: weight change ([1]; 93-105° C.): 1.6%
Thermal stability, conclusion in words [1]: excellent thermal stability
Hygroscopicity or Deliquescency Weight change at 90% RH [2, 4]: 5%*^1
Hygroscopicity or deliquescency, conclusion in words [2]: excellent in the reduced hygroscopicity or deliquescency
Hydration state (hydration stage in moisture adsorption) [2]: hydrate
Chemical stability 60° C., 75% RH, 1 week (open) [3, 5]: 0.13%
Chemical stability 60° C. (sealed) [3, 6]: 0%
Chemical stability, conclusion in words [3]: excellent chemical stability
